Experiment: molar heat capacity at constant pressure
Settings: Liquid, Large sample (1 g) DSC

CCF [fluoroethane]
molar heat capacity at constant pressure [J/K/mol]
Settings	2160 kPa	2580 kPa	3100 kPa	3480 kPa	4030 kPa	4460 kPa	4990 kPa	5490 kPa
305.15 K	105.01	104.34	103.9	104.19	104.67	104.39	103.81	102.94
310.15 K	107.51	106.21	106.31	106.26	105.59	105.06	105.25	104.39
315.15 K	109.82	108.66	109	108.23	107.36	106.26	106.55	105.83
320.15 K	112.17	111.69	111.64	110.44	109.53	108.18	107.94	107.46
325.15 K	–	114.86	114.09	112.89	111.88	110.87	109.67	109.34
330.15 K	–	117.79	116.59	115.92	114.57	114	112.07	111.5
335.15 K	–	–	120.68	119.81	117.99	117.51	115.25	114.14
340.15 K	–	–	129.47	125.24	122.65	121.4	119.28	117.41
345.15 K	–	–	–	132.6	128.7	126.06	124.23	121.69
350.15 K	–	–	–	–	136.59	132.45	130.05	127.26
355.15 K	–	–	–	–	148.79	142.5	136.68	134.37
360.15 K	–	–	–	–	–	159.27	147.49	142.78

From the NIST ThermoML archive (doi:10.1021/acs.jced.5b00346)
